Common to all, as to assay type: functional, organism-based
In one experiment the test system is Cryptococcus neoformans. Description: Antifungal activity against Cryptococcus neoformans ATCC 90113 by broth dilution method.
Another experiment has as its system Candida albicans. The experiment can be described thus: Antifungal activity against Candida albicans ATCC 90028 by broth dilution method. For orientation: Dilution methods test growth across graded concentrations, often in twofold steps.
In a further experiment the test system is Aspergillus fumigatus. The experiment can be described thus: Antifungal activity against Aspergillus fumigatus ATCC 90906 by broth dilution method.
The next experiment deals with Pichia kudriavzevii. The experiment can be described thus: Antifungal activity against Candida krusei ATCC 6258 by broth dilution method.
The subject of the next experiment is Nakaseomyces glabratus. Description: Antifungal activity against Candida glabrata ATCC 90030 by broth dilution method.

The structures appear in SMILES notation. Values after ≈ are worked out from the molar mass of the structure shown. Active and inactive are the calls of the source. The rule behind the calls is not given here.

As a reminder, the IC50 is the midpoint of a concentration-inhibition curve. Higher therefore signals a need for much substance. With `C[C@H]1CC[C@@]2(OC1)OC1C[C@H]3[C@@H]4CC=C5C[C@@H](O)C[C@@H](O[C@@H]6OC[C@H](O)[C@H](O[C@@H]7OC[C@@H](O)[C@H](O)[C@H]7O)[C@H]6O)[C@]5(C)[C@H]4CC[C@]3(C)[C@H]1[C@@H]2C` (stereo partly specified) [ANGUDRACANOSIDE F], the midpoint of inhibition in the experiment on Cryptococcus neoformans, the IC50, lay at 9.5 µg/mL (≈ 13.7 µM). The result in the experiment with Candida albicans, in the experiment on Aspergillus fumigatus, in the experiment on Pichia kudriavzevii and in the experiment with Nakaseomyces glabratus was inactive.
Turning to `C[C@@H]1[C@H](O)[C@@H](C)/C=C/C=C/C=C/C=C/C=C/C=C/C=C/[C@H](O[C@@H]2O[C@H](C)[C@@H](O)[C@H](N)[C@@H]2O)C[C@@H]2O[C@](O)(C[C@@H](O)C[C@@H](O)[C@H](O)CC[C@@H](O)C[C@@H](O)CC(=O)O[C@H]1C)C[C@H](O)[C@H]2C(=O)O` [AMPHOTERICIN B], the IC50 in the experiment on Cryptococcus neoformans came out at 2.5 µg/mL (≈ 2.71 µM).
In the case of `C[C@H]1CC[C@@]2(OC1)OC1C[C@H]3[C@@H]4CC=C5C[C@@H](O)C[C@@H](O[C@@H]6OC[C@H](O)[C@H](O)[C@H]6O[C@@H]6O[C@@H](C)[C@H](O)[C@@H](O)[C@H]6O)[C@]5(C)[C@H]4CC[C@]3(C)[C@H]1[C@@H]2C` (stereo partly specified), the IC50 in the experiment with Cryptococcus neoformans stood at 20 µg/mL (≈ 28.2 µM). Moreover, the outcome in the experiment on Candida albicans, in the experiment on Aspergillus fumigatus, in the experiment with Pichia kudriavzevii and in the experiment on Nakaseomyces glabratus was inactive.
Consider `C=C1CC[C@@]2(OC1)OC1C[C@H]3[C@@H]4[C@@H](O)C=C5C[C@@H](O)C[C@@H](O[C@@H]6OC[C@H](OS(=O)(=O)O)[C@H](O)[C@H]6O[C@@H]6O[C@@H](C)[C@H](O)[C@@H](O)[C@H]6O)[C@]5(C)[C@H]4CC[C@]3(C)[C@H]1[C@@H]2C` (stereo partly specified), for which the result in the experiment with Cryptococcus neoformans, in the experiment with Candida albicans, with Aspergillus fumigatus, in the experiment with Pichia kudriavzevii and with Nakaseomyces glabratus was inactive.
Consider `C[C@H]1CC[C@@]2(OC1)OC1C[C@H]3[C@@H]4C(=O)C=C5C[C@@H](O)C[C@@H](O[C@@H]6OC[C@H](OS(=O)(=O)O)[C@H](O)[C@H]6O[C@@H]6O[C@@H](C)[C@H](O)[C@@H](O)[C@H]6O)[C@]5(C)[C@H]4CC[C@]3(C)[C@H]1[C@@H]2C` (stereo partly specified), for which the outcome with Cryptococcus neoformans, with Candida albicans, with Aspergillus fumigatus, with Pichia kudriavzevii and with Nakaseomyces glabratus was inactive.
With `C=C1CO[C@]2(C[C@H]1O)OC1C[C@H]3[C@@H]4CC=C5C[C@@H](O)C[C@@H](O[C@@H]6OC[C@H](OS(=O)(=O)O)[C@H](O)[C@H]6O[C@@H]6O[C@@H](C)[C@H](O)[C@@H](O)[C@H]6O)[C@]5(C)[C@H]4CC[C@]3(C)[C@H]1[C@@H]2C` (stereo partly specified), the outcome with Cryptococcus neoformans, in the experiment on Candida albicans, with Aspergillus fumigatus, in the experiment with Pichia kudriavzevii and in the experiment on Nakaseomyces glabratus was inactive.
As to `C=C1CC[C@@]2(OC1)OC1C[C@H]3[C@@H]4CC=C5C[C@@H](O)C[C@@H](O[C@@H]6OC[C@H](OS(=O)(=O)O)[C@H](O)[C@H]6O[C@@H]6O[C@@H](C)[C@H](O)[C@@H](O)[C@H]6O)[C@]5(C)[C@H]4CC[C@]3(C)[C@H]1[C@@H]2C` (stereo partly specified), the result with Cryptococcus neoformans, in the experiment on Candida albicans, in the experiment with Aspergillus fumigatus, in the experiment on Pichia kudriavzevii and with Nakaseomyces glabratus was inactive.

Source of the values: ChEMBL document CHEMBL1221370, “Steroidal saponins from fresh stems of Dracaena angustifolia” (J Nat Prod, 2010).
